Experimental data: patent US5244661A, “Process for producing a polyene antibiotic” (Ajinomoto Company, Inc., priority 1989, dated 1993)
≈ marks a conversion by molar mass, not a printed value.

Tests used:
[1] = test system: Candida albicans ATCC 10231; experiment: minimum growth inhibitory concentration (MIC) against Candida albicans ATCC 10231; format: cell-based
[2] = test system: Saccharomyces ubran ATCC 9080; experiment: minimum growth inhibitory concentration (MIC) against Saccharomyces ubran ATCC 9080; format: cell-based; conditions: Table 3

minimum growth inhibitory concentration (MIC) ([1]; Example 7) [µg/mL]	MIC ([1]; Table 3) [µg/mL]	MIC [2] [µg/mL]	Compound
0.52			COC(=O)C1C(O)CC2(O)CC(O)CC(O)CC(O)CC(O)CC(=O)CC(O)CC(=O)OC(C(C)CCC(O)CC(=O)c3ccc(N)cc3)C(C)/C=C/C=C/C=C/C=C/C=C/C=C/C=C/C(O[C@H]3O[C@@H](C)[C@H](O)[C@@H](N)[C@H]3O)CC1O2 (stereo partly drawn) [partricin B methyl ester]
	0.04 (≈ 0.0359 µM)	0.04 (≈ 0.0359 µM)	CC1/C=C/C=C/C=C/C=C/C=C/C=C/C=C/C(O[C@H]2O[C@@H](C)[C@H](O)[C@@H](N)[C@H]2O)CC2OC(O)(CC(O)CC(O)CC(O)CC(O)CC(=O)CC(O)CC(=O)OC1C(C)CCC(O)CC(=O)c1ccc(N)cc1)CC(O)C2C(=O)O (stereo partly drawn) [Partricin B, partricin B]
